Measured values reported in PMC4447972, “Mechanism of the Association between Na^+ Binding and Conformations at the Intracellular Gate in Neurotransmitter:Sodium Symporters” (The Journal of Biological Chemistry, 2015).

What was measured:
[1] = target: T1, DAT (hDAT) (Homo sapiens, UniProt Q01959); conditions: read-out: DA Km; 130 mM NaCl, pH 7.4; 6 nM [3H]DA plus unlabelled DA; apparent affinity for uptake
T1 construct: gene SLC6A3

[2] = substrate: NCCc1ccc(O)c(O)c1; assay: cells, lysate or membranes; conditions: 130 mM NaCl, pH 7.4, 6 nM [3H]DA plus unlabelled DA, apparent affinity for uptake

T1 sequence (Q01959 whole entry): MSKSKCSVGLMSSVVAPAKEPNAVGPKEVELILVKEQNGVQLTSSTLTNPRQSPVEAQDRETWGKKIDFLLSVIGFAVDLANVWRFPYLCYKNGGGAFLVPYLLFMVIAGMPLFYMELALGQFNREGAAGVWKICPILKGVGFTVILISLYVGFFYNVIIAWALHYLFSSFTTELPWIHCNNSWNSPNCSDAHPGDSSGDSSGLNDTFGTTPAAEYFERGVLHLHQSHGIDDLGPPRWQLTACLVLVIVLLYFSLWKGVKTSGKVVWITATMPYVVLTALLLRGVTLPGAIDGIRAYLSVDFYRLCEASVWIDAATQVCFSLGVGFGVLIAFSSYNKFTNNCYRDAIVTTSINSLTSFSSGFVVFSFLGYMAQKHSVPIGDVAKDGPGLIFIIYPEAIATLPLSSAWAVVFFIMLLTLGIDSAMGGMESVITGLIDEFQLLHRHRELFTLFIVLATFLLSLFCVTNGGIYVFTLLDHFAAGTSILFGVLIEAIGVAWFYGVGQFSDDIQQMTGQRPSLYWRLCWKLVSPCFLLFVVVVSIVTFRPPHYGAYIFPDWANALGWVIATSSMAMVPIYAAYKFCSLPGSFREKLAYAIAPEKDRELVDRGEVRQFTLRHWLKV

Molecule: NCCc1ccc(O)c(O)c1 [dopamine]
- Km [1]: 1200 nM

B1: DAT (hDAT) (Homo sapiens; D436A) (protein)
chain: MSKSKCSVGLMSSVVAPAKEPNAVGPKEVELILVKEQNGVQLTSSTLTNPRQSPVEAQDRETWGKKIDFLLSVIGFAVDLANVWRFPYLCYKNGGGAFLVPYLLFMVIAGMPLFYMELALGQFNREGAAGVWKICPILKGVGFTVILISLYVGFFYNVIIAWALHYLFSSFTTELPWIHCNNSWNSPNCSDAHPGDSSGDSSGLNDTFGTTPAAEYFERGVLHLHQSHGIDDLGPPRWQLTACLVLVIVLLYFSLWKGVKTSGKVVWITATMPYVVLTALLLRGVTLPGAIDGIRAYLSVDFYRLCEASVWIDAATQVCFSLGVGFGVLIAFSSYNKFTNNCYRDAIVTTSINSLTSFSSGFVVFSFLGYMAQKHSVPIGDVAKDGPGLIFIIYPEAIATLPLSSAWAVVFFIMLLTLGIDSAMGGMESVITGLIAEFQLLHRHRELFTLFIVLATFLLSLFCVTNGGIYVFTLLDHFAAGTSILFGVLIEAIGVAWFYGVGQFSDDIQQMTGQRPSLYWRLCWKLVSPCFLLFVVVVSIVTFRPPHYGAYIFPDWANALGWVIATSSMAMVPIYAAYKFCSLPGSFREKLAYAIAPEKDRELVDRGEVRQFTLRHWLKV
- Km [2]: 0.15 [0.13;0.18] μM
